Results taken from ChEMBL document CHEMBL6134890, “Terminally Symmetric β-Turn Peptides for Multidrug-Resistant Bacterial Infections” (J Med Chem, 2025).
Converted amounts (≈) assume the structure as drawn. The source made the active and inactive calls. No cut-off for these calls is given here. Peptide text beside a SMILES is read from it.

Tests used:
Escherichia coli [1] = test: Antibiofilm activity against multi-drug resistant Escherichia coli at 0.5 times MIC measured after 24 hrs by crystal violet staining based analysis; assay type: functional, organism-based
Cell membrane [2] = test: Disruption of cell membrane in multi-drug resistant Staphylococcus aureus assessed as appearance of ruptured cell surface at 2 times MIC measured for 120 mins by transmission electron microscopy analysis; assay type: subcellular
Staphylococcus aureus [3] = test: Antimicrobial activity against multi-drug resistant Staphylococcus aureus assessed as reduction in bacterial growth measured after 1 to 6 hrs in 25% plasma; assay type: functional, organism-based; settings: time 1-6 hrs
Cell membrane [4] = test: Induction of cytoplasmic membrane depolarization in multi-drug resistant Staphylococcus aureus at 1 to 4 times MIC measured within 1 min by DiSC3-5 fluorescent dye based analysis
[5] = Hemolytic activity in human Red blood cell assessed as hemolysis incubated for 1 hrs by microplate reader based analysis; assay type: toxicity; settings: erythrocyte
Staphylococcus aureus [6] = test: Antimicrobial activity against Staphylococcus aureus ATCC 25923 assessed as reduction in bacterial growth by broth dilution method; assay type: functional
Staphylococcus aureus [7] = test: Antibiofilm activity in methicillin-resistant Staphylococcus aureus assessed as eradication of formed biofilm by measuring reduction in viable bacterial count measured after 12 hrs by confocal microscopy based analysis; assay type: functional, organism-based
Cell membrane [8] = test: Disruption of cell membrane in multi-drug resistant Staphylococcus aureus assessed as increase in red fluorescence intensity of PI at 2 times MIC measured for 2 hrs by fluorescence confocal microscopic imaging based analysis; assay type: subcellular
Staphylococcus aureus [9] = test: Antimicrobial activity against multi-drug resistant Staphylococcus aureus assessed as reduction in bacterial growth by broth dilution method; assay type: functional
Escherichia coli [10] = test: Antimicrobial activity against multi-drug resistant Escherichia coli assessed as reduction in bacterial growth by broth dilution method; assay type: functional
Escherichia coli [11] = test: Antimicrobial activity against multi-drug resistant Escherichia coli assessed as fold increase in MIC in presence of FeCl3; assay type: functional
Escherichia coli [12] = test: Bactericidal activity against multi-drug resistant Escherichia coli assessed as eradication of bacterial growth at 2 times MIC by time-kill kinetic assay; assay type: functional, organism-based; settings: time 120-720 min
Escherichia coli [13] = test: Antimicrobial activity against Escherichia coli ATCC 25922 assessed as reduction in bacterial growth by broth dilution method; assay type: functional
Cell membrane [14] = test: Disruption of cell membrane in multi-drug resistant Escherichia coli assessed as appearance of wrinkled cell surface at 2 times MIC measured for 120 mins by transmission electron microscopy analysis; assay type: subcellular
Escherichia coli [15] = test: Antibiofilm activity in […] assessed as eradication of formed biofilm at 1 to 4 times MIC measured after 12 hrs by confocal microscopy based analysis; assay type: functional, organism-based
Enterococcus faecalis = test: Antimicrobial activity against multi-drug resistant Enterococcus faecalis assessed as reduction in bacterial growth by broth dilution method; assay type: functional
Staphylococcus aureus [16] = test: Antibiofilm activity in methicillin-resistant Staphylococcus aureus assessed as eradication of formed biofilm at 1 to 4 times MIC measured after 12 hrs by confocal microscopy based analysis; assay type: functional, organism-based
Cell membrane [17] = test: Disruption of cell membrane in multi-drug resistant Escherichia coli assessed as appearance of ruptured cell surface at 2 times MIC measured for 120 mins by transmission electron microscopy analysis; assay type: subcellular
Staphylococcus aureus [18] = test: Bactericidal activity against multi-drug resistant Staphylococcus aureus assessed as eradication of bacterial growth at 2 times MIC measured after 6 hrs by time-kill kinetic assay relative to control; assay type: functional
Escherichia coli [19] = test: Bactericidal activity against multi-drug resistant Escherichia coli assessed as eradication of bacterial growth at 2 times MIC measured after 6 hrs by time-kill kinetic assay relative to control; assay type: functional
Escherichia coli [20] = test: Antibiofilm activity in […] assessed as eradication of formed biofilm by measuring reduction in viable bacterial count measured after 12 hrs by confocal microscopy based analysis; assay type: functional, organism-based
Cell membrane [21] = test: Disruption of cell membrane in multi-drug resistant Staphylococcus aureus assessed as appearance of wrinkled cell surface at 2 times MIC measured for 120 mins by transmission electron microscopy analysis; assay type: subcellular
Escherichia coli [22] = test: Bactericidal activity against multi-drug resistant Escherichia coli at 1 times MIC preincubated with LPS for 1 hrs followed by bacterial addition and measured after 18 hrs by microplate reader based analysis; assay type: functional, organism-based; settings: time 19.0 hrs
Cell membrane [23] = test: Induction of outer membrane permeabilization in multi-drug resistant Escherichia coli assessed as NPN uptake at 1 to 4 times MIC measured within 1 min by fluorescence based analysis; assay type: subcellular
Escherichia coli [24] = test: Antibiofilm activity against multi-drug resistant Escherichia coli measured after 24 hrs by crystal violet staining based analysis; assay type: functional, organism-based
Escherichia coli [25] = test: Antimicrobial activity against multi-drug resistant Escherichia coli assessed as fold increase in MIC in presence of NaCl; assay type: functional
Staphylococcus aureus [26] = test: Antibiofilm activity against multi-drug resistant Staphylococcus aureus measured after 24 hrs by crystal violet staining based analysis; assay type: functional, organism-based
Staphylococcus aureus [27] = test: Bactericidal activity against multi-drug resistant Staphylococcus aureus assessed as eradication of bacterial growth at 2 times MIC by time-kill kinetic assay; assay type: functional, organism-based; settings: time 120-720 min
Cell membrane [28] = test: Induction of cytoplasmic membrane depolarization in multi-drug resistant Escherichia coli at 1 to 4 times MIC measured within 1 min by DiSC3-5 fluorescent dye based analysis
[29] = tested on: Staphylococcus epidermidis; test: Antimicrobial activity against multi-drug resistant Staphylococcus epidermidis assessed as reduction in bacterial growth by broth dilution method; assay type: functional
Klebsiella pneumoniae = test: Antimicrobial activity against multi-drug resistant Klebsiella pneumoniae assessed as reduction in bacterial growth by broth dilution method; assay type: functional
Escherichia coli [30] = test: Antimicrobial activity against multi-drug resistant Escherichia coli assessed as reduction in bacterial growth at 2 times MIC measured after 1 hrs in presence of chymotrypsin by microplate reader based analysis; assay type: functional, organism-based
Staphylococcus aureus [31] = test: Antibacterial activity against Staphylococcus aureus ATCC 25923 at sub-inhibitory concentration measured after 15 passages for 18 hrs; assay type: functional; design: scale not given: the % may be the effect or the level left
Acinetobacter baumannii = test: Antimicrobial activity against multi-drug resistant Acinetobacter baumannii assessed as reduction in bacterial growth by broth dilution method; assay type: functional
Escherichia coli [32] = test: Antimicrobial activity against multi-drug resistant Escherichia coli assessed as reduction in bacterial growth at 2 times MIC measured after 1 hrs in presence of trypsin by microplate reader based analysis; assay type: functional, organism-based
Escherichia coli [33] = test: Antimicrobial activity against multi-drug resistant Escherichia coli assessed as fold increase in MIC in presence of KCl; assay type: functional
[34] = Half life of the compound in 25% plasma; assay type: ADME, cell-free
Staphylococcus aureus [35] = test: Antimicrobial activity against multi-drug resistant Staphylococcus aureus assessed as reduction in bacterial growth at 2 times MIC measured after 1 hrs in presence of trypsin by microplate reader based analysis; assay type: functional, organism-based
Staphylococcus aureus [36] = test: Antimicrobial activity against multi-drug resistant Staphylococcus aureus assessed as reduction in bacterial growth at 2 times MIC measured after 1 hrs in presence of chymotrypsin by microplate reader based analysis; assay type: functional, organism-based
Cell membrane [37] = test: Disruption of cell membrane in multi-drug resistant Escherichia coli assessed as increase in red fluorescence intensity of PI at 2 times MIC measured for 2 hrs by fluorescence confocal microscopic imaging based analysis; assay type: subcellular
Staphylococcus aureus [38] = test: Antimicrobial activity against multi-drug resistant Staphylococcus aureus assessed as fold increase in MIC measured after 6 hrs in 25% plasma; assay type: functional
Staphylococcus aureus [39] = test: Antimicrobial activity against multi-drug resistant Staphylococcus aureus assessed as fold increase in MIC in presence of MgCl2; assay type: functional
HEK-293T = test: Cytotoxicity against HEK293T cells at 2 to 256 uM measured after 24 hrs by CCK-8 method; assay type: toxicity, cell-based; settings: human, dose 2-256 µM
Staphylococcus aureus [40] = test: Antimicrobial activity against multi-drug resistant Staphylococcus aureus assessed as fold increase in MIC in presence of NaCl; assay type: functional
Escherichia coli [41] = test: Antimicrobial activity against multi-drug resistant Escherichia coli assessed as fold increase in MIC measured after 6 hrs in 25% plasma; assay type: functional
BEAS-2B = test: Cytotoxicity against human BEAS-2B cells at 2 to 256 uM measured after 24 hrs by CCK-8 method; assay type: toxicity, cell-based; settings: dose 2-256 µM
Escherichia coli [42] = test: Antimicrobial activity against multi-drug resistant Escherichia coli assessed as fold increase in MIC in presence of MgCl2; assay type: functional
L02 = test: Cytotoxicity against human LO2 cells at 2 to 256 uM measured after 24 hrs by CCK-8 method; assay type: toxicity, cell-based; settings: l02, 24 h, dose 2-256 µM

## CC(C)C[C@H](NC(=O)[C@H](Cc1ccccc1)NC(=O)[C@@H]1CCCN1C(=O)[C@H](Cc1c[nH]c2ccccc12)NC(=O)[C@H](Cc1c[nH]c2ccccc12)NC(=O)[C@H](Cc1c[nH]c2ccccc12)NC(=O)[C@@H]1CCCN1C(=O)[C@H](Cc1ccccc1)NC(=O)[C@H](CCCNC(=N)N)NC(=O)[C@H](CCCNC(=N)N)NC(=O)[C@@H](N)C(C)C)C(=O)N[C@@H](CCCNC(=N)N)C(=O)N[C@@H](CCCNC(=N)N)C(=O)O
Escherichia coli [1]
  Activity: inactive
Cell membrane [2]
  Activity: Active
Staphylococcus aureus [3]
  Activity: inactive
Cell membrane [4]
  Activity: Active
[5]
  HC10: 33.13 µM
Staphylococcus aureus [6]
  MIC: 8 µM (≈ 15.2 µg/mL)
Staphylococcus aureus [7]
  Activity: Dose-dependent-effect
Cell membrane [8]
  Activity: Active
Staphylococcus aureus [9]
  MIC: 16 µM (≈ 30.4 µg/mL)
Escherichia coli [10]
  MIC: 16 µM (≈ 30.4 µg/mL)
Escherichia coli [11]
  fold change (FC): 2
Escherichia coli [12]
  Activity: Time-dependent-effect
Escherichia coli [13]
  MIC: 16 µM (≈ 30.4 µg/mL)
Cell membrane [14]
  Activity: Active
Escherichia coli [15]
  Activity: Active
Enterococcus faecalis
  MIC: 4 µM (≈ 7.61 µg/mL)
Staphylococcus aureus [16]
  Activity: Active
Cell membrane [17]
  Activity: Active
Staphylococcus aureus [18]
  Activity: 100%
Escherichia coli [19]
  Activity: 100%
Escherichia coli [20]
  Activity: Dose-dependent-effect
Cell membrane [21]
  Activity: Active
Escherichia coli [22]
  Activity: inactive
Cell membrane [23]
  Activity: Active
Escherichia coli [24]
  Activity: Dose-dependent-effect
Escherichia coli [25]
  fold change (FC): 2
Staphylococcus aureus [26]
  Activity: Dose-dependent-effect
Staphylococcus aureus [27]
  Activity: Time-dependent-effect
Cell membrane [28]
  Activity: Active
[29]
  MIC: 4 µM (≈ 7.61 µg/mL)
Klebsiella pneumoniae
  MIC: 256 µM (≈ 487 µg/mL)
Escherichia coli [30]
  Activity: inactive
Staphylococcus aureus [31]
  Activity: 100%
Acinetobacter baumannii
  MIC: 32 µM (≈ 60.9 µg/mL)
Escherichia coli [32]
  Activity: inactive
Escherichia coli [33]
  fold change (FC): 2
[34]
  half-life: 1.7 h
Staphylococcus aureus [35]
  Activity: inactive
Staphylococcus aureus [36]
  Activity: inactive
Cell membrane [37]
  Activity: Active

## CC(C)C[C@H](NC(=O)[C@H](CCCCN)NC(=O)[C@H](CC(C)C)NC(=O)[C@H](CCCCN)NC(=O)[C@@H]1CCCN1C(=O)[C@H](Cc1c[nH]c2ccccc12)NC(=O)[C@H](Cc1c[nH]c2ccccc12)NC(=O)[C@H](Cc1c[nH]c2ccccc12)NC(=O)[C@@H]1CCCN1C(=O)[C@H](CCCCN)NC(=O)[C@H](CC(C)C)NC(=O)[C@H](CCCCN)NC(=O)[C@H](CC(C)C)NC(=O)[C@@H](N)CCCCN)C(=O)N[C@@H](CCCCN)C(N)=O (H-KLKLKPWWWPKLKLK-NH2)
[5]
  HC10: > 256 µM
Staphylococcus aureus [6]
  MIC: 8 µM (≈ 15.9 µg/mL)
Staphylococcus aureus [38]
  fold change (FC): 2
Staphylococcus aureus [39]
  fold change (FC): 2
Staphylococcus aureus [9]
  MIC: 8 µM (≈ 15.9 µg/mL)
Escherichia coli [10]
  MIC: 4 µM (≈ 7.97 µg/mL)
Escherichia coli [13]
  MIC: 4 µM (≈ 7.97 µg/mL)
Enterococcus faecalis
  MIC: 8 µM (≈ 15.9 µg/mL)
HEK-293T
  Activity: Toxic
Staphylococcus aureus [40]
  fold change (FC): 2
Escherichia coli [41]
  fold change (FC): 2
BEAS-2B
  Activity: Toxic
Escherichia coli [42]
  fold change (FC): 2
Escherichia coli [25]
  fold change (FC): 2
L02
  Activity: Toxic
[29]
  MIC: 8 µM (≈ 15.9 µg/mL)
Klebsiella pneumoniae
  MIC: 4 µM (≈ 7.97 µg/mL)
Escherichia coli [30]
  Activity: inactive
Acinetobacter baumannii
  MIC: 8 µM (≈ 15.9 µg/mL)
Escherichia coli [32]
  Activity: inactive
[34]
  half-life: 35.4 h
Staphylococcus aureus [35]
  Activity: inactive
Staphylococcus aureus [36]
  Activity: inactive
